Entries after “also recorded” stand apart in the source; their conditions may differ.
Key:
mSir2α = biological target: T1, mSir2α (Mus musculus, UniProt Q923E4); assay: ADP-ribosylation assay, sensitivity of mSir2α to poly- and mono-ADP-ribosylation inhibitors (histone H2B, 32P-NAD); format: biochemical; settings: for inhibition of the ADP-ribosylation activity of the mSir2α protein: 40, 200 and 1000 μM
T1 construct: ADP-ribosylase activity of bacterial recombinant full-length proteins of ySir2p and mSir2α was determined in in vitro assays; 6×His; made in house; host or cells: E. coli BL21 (DE3) pLysS with an extra copy of arginine tRNA gene, pET28a
T1 sequence (Q923E4 1-737): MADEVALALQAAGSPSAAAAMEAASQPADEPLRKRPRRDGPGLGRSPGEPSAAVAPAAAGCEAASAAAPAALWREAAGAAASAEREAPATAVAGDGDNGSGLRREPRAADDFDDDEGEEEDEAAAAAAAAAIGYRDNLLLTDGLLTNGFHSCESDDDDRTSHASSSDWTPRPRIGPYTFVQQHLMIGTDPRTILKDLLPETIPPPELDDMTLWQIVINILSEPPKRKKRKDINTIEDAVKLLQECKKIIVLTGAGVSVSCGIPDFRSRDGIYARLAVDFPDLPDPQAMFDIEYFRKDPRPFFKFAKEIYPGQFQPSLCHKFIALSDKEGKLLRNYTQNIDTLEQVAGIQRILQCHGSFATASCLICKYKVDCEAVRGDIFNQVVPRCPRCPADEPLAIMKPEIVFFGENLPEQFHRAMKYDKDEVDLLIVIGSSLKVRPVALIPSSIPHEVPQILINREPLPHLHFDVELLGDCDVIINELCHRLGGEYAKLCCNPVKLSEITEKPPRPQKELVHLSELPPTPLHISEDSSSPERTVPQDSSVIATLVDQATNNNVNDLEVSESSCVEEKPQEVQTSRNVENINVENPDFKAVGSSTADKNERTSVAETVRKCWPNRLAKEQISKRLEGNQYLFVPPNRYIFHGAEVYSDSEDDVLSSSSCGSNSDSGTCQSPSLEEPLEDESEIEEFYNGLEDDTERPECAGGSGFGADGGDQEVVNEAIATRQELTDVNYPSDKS
Procedure: The typical reaction was performed in 50 or 100 μl of the buffer containing 5 mM Tris-HCl [pH8.0 or 9.0], 4 mM MgCl2, 0.2 mM DTT, 1 μM cold β-NAD^+ (SIGMA®) and 8 μCi nicotinamide adenine dinucleotide 5′[α-^32P]triphosphate (NAD) as a donor of ADP-ribose (˜1000 Ci/mmol, Amersham Pharmacia Biotech). To check the sensitivity to poly- or mono-ADP-ribosylation inhibitors, 3-aminobenzamide (ICN Pharmaceuticals, CA), benzamide, novobiocin and coumermycin A1 (SIGMA®) were added to the reactions prior to adding Sir2 proteins, respectively. The wild type or mutant recombinant proteins (0.5-1 μg for ySir2p and 10 μg of mSir2α) were added with 4 μg of each histone purchased from Roche Molecular Biochemicals (Indianapolis, Ind.). For the peptide experiments, 5-10 μg of unacetylated or acetylated N-terminal tail peptides (amino acids 1-20) of H3 and H4 purchased from Upstate Biotechnology™ (Lake Placid, N.Y.) were used as substrates of the yeast and mouse Sir2 recombinant proteins.
To analyze histone modification, 25 μl of 100% trichloroacetic acid (TCA) solution was mixed to the reaction mixture and left on ice for 15 min. The protein precipitates were centrifuged at 4° C. and washed with 5 or 20% TCA solution twice. The pellets were dissolved in 15 μl of Leammli's sample buffer and boiled for 1.5 min. The proteins were electrophoresed in a 10-20% gradient SDS-PAGE gel. The gel was stained with COOMASSIE® Brilliant Blue R-250 (GibcoBRL Life Technologies™, Frederick, Md.) to check equal loading of histones, dried, and exposed to KODAK® X-OMAT film.
The sensitivity of the ADP-ribosylase activity of mSir2α to poly ADP-ribosylation inhibitors (3-aminobenzamide and benzamide) and mono-ADP-ribosylation inhibitors (novobiocin and coumermycin A1) was evaluated. (FIG. 4F).

Sir2p = biological target: T2, Sir2p (Saccharomyces cerevisiae, UniProt P06700); assay: NAD-dependent deacetylation of di-acetylated H3 peptide by recombinant yeast Sir2p (HPLC); format: biochemical; settings: for function in the deacetylation of the H3 peptide by Sir2p: 1 mM NAD derivative; for inhibition of the deacetylase activity in a reaction with NAD: not shown
T2 construct: purified recombinant yeast (rSir2p) protein, mouse Sir2 (mSir2α) proteins and vector controls; 6×His; made in house; host or cells: E. coli BL21 (DE3), pET28a
T2 sequence (P06700 whole entry): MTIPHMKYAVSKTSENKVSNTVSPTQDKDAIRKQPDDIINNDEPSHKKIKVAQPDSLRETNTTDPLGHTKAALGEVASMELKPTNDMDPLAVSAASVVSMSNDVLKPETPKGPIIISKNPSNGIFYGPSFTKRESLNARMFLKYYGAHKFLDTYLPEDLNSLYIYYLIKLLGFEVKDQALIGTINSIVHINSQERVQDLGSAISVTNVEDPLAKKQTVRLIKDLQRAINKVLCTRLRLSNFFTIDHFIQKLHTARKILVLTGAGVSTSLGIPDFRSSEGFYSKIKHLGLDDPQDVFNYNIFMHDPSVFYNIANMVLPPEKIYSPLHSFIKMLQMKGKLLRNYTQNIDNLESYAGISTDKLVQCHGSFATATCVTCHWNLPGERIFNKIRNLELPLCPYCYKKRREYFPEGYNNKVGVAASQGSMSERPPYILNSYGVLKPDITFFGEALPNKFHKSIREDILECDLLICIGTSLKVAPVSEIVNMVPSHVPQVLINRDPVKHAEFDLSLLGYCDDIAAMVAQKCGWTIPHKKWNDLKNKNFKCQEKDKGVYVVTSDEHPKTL
Procedure: (§1) The typical reaction of Sir2 deacetylase activity was performed in 50 μl of buffer containing 50 mM Tris-HCl [pH 9.0], 4 mM MgCl2, 0.2 mM DTT, variable concentration of cold nicotinamide adenine dinucleotide (NAD) or NAD derivatives (SIGMA®, MO), 5-10 μg of the purified recombinant Sir2 proteins, and 10 μg of the histone H3 N-terminal tail peptide (amino acid 1-20) di-acetylated at positions 9 and 14 (Upstate Biotechnology™, NY). […] To detect the ADP-ribosylation activity, 8 μCi of NAD 5′-[α-^32P]triphosphate (˜1000 Ci/mmol, Amersham Pharmacia Biotech™, NJ) was added to the same reaction containing 1 μM cold NAD. Histone H3 protein (4 μg) (Roche Molecular Biochemicals™, IN) were used for this assay. All reaction mixtures were incubated at room temperature for 1 hr. Trichostatin A and coumermycin A1 (SIGMA™) were prepared in dimethylsulfoxide (DMSO, SIGMA®), and 5 μl of solvent or inhibitor was added to the reactions prior to adding Sir2 proteins.
(§2) After the incubation, the products were precipitated at −20° C. overnight by adding 50 μl of distilled water and 25 μl of 100% trichloroacetic acid (TCA) solution. For high pressure liquid chromatography (HPLC), the precipitates were reconstituted in 5% CH3CN and 0.1% trifluoroacetic acid (TFA) and run in the gradient concentration between 0.05% TFA and 0.043% TFA plus 80% CH3CN on Hewlett Packard Model 1100 HPLC system with 214TP52 column (VYDAC, CA). The chromatograms at the absorbance of 210 nm were digitally recorded and analyzed by Hewlett Packard ChemStation™ system (version A.06.03 [509]). Fractions of samples were collected every 1 min by Gilson™ Fraction Collector Model 203. Peptide sequencing was done by the Applied Biosystems PROCISE® 494 HT protein sequencing system. PTH amino acid chromatograms were recorded and analyzed by the ABI Model 610A2.1 data integration/analysis system.
The experiments employed purified recombinant Sir2p in a reaction with NAD and a peptide of the histone H3 amino-terminal tail (residues 1-20) di-acetylated at lysines 9 and 14. These lysines are hypoacetylated in silenced chromatin and mutations at these positions to glycine greatly reduce silencing in vivo (Thompson, J. S., et al., Nature 369: 245-247 (1994)). The products of a reaction containing 5 μg of recombinant yeast Sir2p (79 pmoles) (FIG. 8a), 10 μg of the H3 peptide (4.2 nmoles) increasing concentrations of NAD were analyzed s by high pressure liquid chromatography (HPLC).

[1] = test system: mono-ADP-ribosyltransferases; settings: literature value; read-out: reported IC50 concentration; cited from earlier work
[2] = test system: di-acetylated H3 peptide (residues 1-20 acetylated on Lys9 and Lys14); assay: deacetylase activity of recombinant Sir2p and Sir2p core domain mutants on H3 peptide; format: biochemical; settings: for NAD-dependent histone H3 deacetylase activity, of wild type activity: 5 μg recombinant protein
Procedure: as §1, §2
(§3) BL21 with SIR2 or the sir2 mutants subcloned into pET28a (NOVAGEN®) were induced with 1 mM IPTG for 1 hr. The recombinant proteins were purified by Nickel-NTA column under native condition. Ribosylation and deacetylation assays were performed using 1 μg of recombinant protein for the ribosylation assay and 5 μg for the deacetylation assay.
A set of mutations in highly conserved residues of the core domain of SIR2 were constructed by site-directed mutagenesis (FIG. 17a) and cloned into vectors, along with the wild type, to allow expression of the recombinant proteins in E. coli or expression of single-copy genes from the native SIR2 promoter in S. cerevisiae. These 6×his (SEQ ID NO: 39) tagged proteins were purified from E. coli by a Ni-NTA column (FIG. 17b) and analyzed for the NAD-dependent histone H3 deacetylase activity in an assay with a di-acetylated H3 peptide (residues 1-20 acetylated on Lys9 and Lys14) and 1 mM NAD. HPLC separation of the reaction products yields five peaks of which 1, 2, a portion of 3 and 4 are deacetylated species of peptide (FIG. 15).

histone H3 = assay: ADP-ribosyltransferase activity of Sir2p core domain mutants; format: biochemical; settings: histone H3 substrate; relative to wild type
Procedure: as §1
Electron-spray mass spectroscopy (also referred to herein as mass spectroscopy) was done on the PE Sciex Model API365™ system. Matrix assisted laser desorption/ionization (MALDI) mass spectroscopy can also be used. The electron-spray mass spectroscopy data were analyzed by the BioMultiView Program™ (version 1.3.1). To detect the ADP-ribosylated intact H3 protein, the pellets were dissolved in 15 μl of Leammli sample buffer, boiled for 1.5 min and electrophoresed in a 10-20% gradient SDS-PAGE gel. The gel was stained with Coomassie Brilliant Blue to check equal loading of histones, dried, and exposed to KODAK® X-OMAT film. To analyze the ADP-ribosylated H3 peptides, 10 μl of each reaction mixture was spotted on a cellulose TLC plate (EM Science™, NJ). The chromatography was performed for 9-10 hrs in a TLC chamber containing the 65:5:3:2:29 mixture of isobutyric acid, pyridine, acetic acid, butanol and water (Scheidtmann, K. H., et al., J. Virol. 44:116-133 (1982)). The plate was dried and exposed to KODAK® X-OMAT film. The peptide spots were checked by ninhydrin staining.
as §3
The Sir 2 mutant proteins were also analyzed for ADP-ribosyltransferase activity using the histone H3 substrate, (FIG. 17c). […] The same pattern of activities was observed using a peptide of the N-terminal tail of histone H3 (not shown).

Molecule | NAD-dependent histone H3 deacetylase activity, of wild type activity ([2]; 1 mM NAD) | ADP-ribosyltransferase activity (histone H3) | also measured
NC(=O)c1cccc(N)c1 [3-aminobenzamide] |  |  | inhibition of the ADP-ribosylation activity of the mSir2α protein (mSir2α): did not inhibit
NC(=O)C1=CN([C@@H]2O[C@H](COP(=O)(O)OP(=O)(O)OC[C@H]3O[C@@H](n4cnc5c(N)ncnc54)[C@H](O)[C@@H]3O)[C@@H](O)[C@H]2O)C=CC1 [NADH] |  |  | function in the deacetylation of the H3 peptide by Sir2p (Sir2p): functioned weakly; inhibition of the deacetylase activity in a reaction with NAD (Sir2p): neither NADH nor NADP significantly inhibited
NC(=O)C1=CN([C@@H]2O[C@H](COP(=O)(O)OP(=O)(O)OC[C@H]3O[C@@H](n4cnc5c(N)ncnc54)[C@H](OP(=O)(O)O)[C@@H]3O)[C@@H](O)[C@H]2O)C=CC1 [NADPH] |  |  | function in the deacetylation of the H3 peptide by Sir2p (Sir2p): did not function significantly
NC(=O)c1ccc[n+]([C@@H]2O[C@H](COP(=O)([O-])OP(=O)(O)OC[C@H]3O[C@@H](n4cnc5c(N)ncnc54)[C@H](OP(=O)(O)O)[C@@H]3O)[C@@H](O)[C@H]2O)c1 [NADP] |  |  | function in the deacetylation of the H3 peptide by Sir2p (Sir2p): did not function significantly; inhibition of the deacetylase activity in a reaction with NAD (Sir2p): neither NADH nor NADP significantly inhibited
CC(/C=C/C(=O)NO)=C\[C@@H](C)C(=O)c1ccc(N(C)C)cc1 [TSA, trichostatin A] |  |  | inhibition of deacetylation by Sir2p (Sir2p; 400 nM): does not affect; also recorded: totally incapable of inhibiting
NC(=O)c1ccccc1 [benzamide] |  |  | inhibition of the ADP-ribosylation activity of the mSir2α protein (mSir2α): did not inhibit
CO[C@@H]1[C@@H](OC(N)=O)[C@@H](O)[C@H](Oc2ccc3c(O)c(NC(=O)c4ccc(O)c(CC=C(C)C)c4)c(=O)oc3c2C)OC1(C)C [novobiocin] |  |  | inhibition of ADP-ribosylation by mSir2α (mSir2α; 200 μM): strongly inhibited; IC50 [1]: 370 µM
Sir2p: purified recombinant 6×His-tagged yeast Sir2 protein |  |  | input peptide deacetylated ([2]; areas under HPLC peaks 1, 2 and 4, 1 mM NAD): at least 27%; acetyl lysines at positions 9 and 14 deacetylated ([2]; peak 4, Edmann degradation, in the presence of NAD): 23-27%
mutant 261: 6×His tagged yeast Sir2p core domain mutant, Thr-261 mutated to alanine | 17% | 4% | 
mutant 270: 6×His tagged yeast Sir2p core domain mutant, Gly-270 mutated to alanine | 80% | 7% | 
mutant 271: 6×His tagged yeast Sir2p core domain mutant, Iso-271 mutated to alanine | 36% | 8% | 
mutant 275: 6×His tagged yeast Sir2p core domain mutant, Arg-275 mutated to alanine | 67% | about as active as wild type | 
mutant 345: 6×His tagged yeast Sir2p core domain mutant, Asn-345 mutated to alanine | inactive | completely inactive | 
mutant 347: 6×His tagged yeast Sir2p core domain mutant, Asp-347 mutated to alanine | inactive | completely inactive | 

Source: patent publication US8642284B1, “Methods for identifying agents that alter NAD-dependent deacetylation activity of a SIR2 protein” (Massachusetts Institute of Technology, priority 1999, dated 2014)
